Source: patent US9155719B2, “N-acetyl-DL-leucine, neuroprotective and retinoprotective medicament” (priority 2010, dated 2015)

Key:
Type in all cases: in vivo, human
[1] = tested on: "normal" patients without ocular pathology (aging individuals); assay: Clinical observation, age-related physiological vision decline / normal patients; conditions: in many cases; absence of any occular pathology
Method: The invention will be even further illustrated by the description of the clinical examples which follow and which, of course, are not limiting in nature. In these examples, the active ingredient, the N-acetyl-DL-leucine, was administered continuously (i.e., at least once a day) in oral or topical form, in an amount of 2 gr per day in the case of the oral form and 2% in the case of eye drops. […] In many cases, N-acetyl-DL-leucine improved visual function (visual acuity, contrast vision and visual field) in the absence of any occular pathology.

patients with presbyopia = assay: Clinical observation, presbyopia; conditions: fourteen patients; eye drops
Method: (§1) The invention will be even further illustrated by the description of the clinical examples which follow and which, of course, are not limiting in nature. In these examples, the active ingredient, the N-acetyl-DL-leucine, was administered continuously (i.e., at least once a day) in oral or topical form, in an amount of 2 gr per day in the case of the oral form and 2% in the case of eye drops. More particularly, but not exclusively, it relates to eyedrops composed of N-acetyl-DL-leucine, which are intended for improving (i.e., in the present case, decreasing) the effects of presbyopia, myopia, hypermetropia and astigmatism, for stabilizing them or even for reversing the evolutive course thereof. • Myopia: seven patients were evaluated and received the N-acetyl-DL-leucine in the form of eye drops. • Result: in addition to the improvement of their visual acuity, the visual field, the refractive value was reduced. One can deduce therefrom that the N-acetyl-DL-leucine not only improves vision but also treats myopia. • Presbyopia: fourteen patients received the N-acetyl-DL-leucine in the form of eye drops and experienced an improvement of their near vision and a decrease in presbyopia. […]

[2] = tested on: patients with Retinitis Pigmentosa; assay: Clinical observation, retinitis pigmentosa patients; conditions: seven patients: three 1 gr 2 times per day oral, four 2% eye drops 3 times per day
Method: The invention will be even further illustrated by the description of the clinical examples which follow and which, of course, are not limiting in nature. In these examples, the active ingredient, the N-acetyl-DL-leucine, was administered continuously (i.e., at least once a day) in oral or topical form, in an amount of 2 gr per day in the case of the oral form and 2% in the case of eye drops. This disorder corresponds to a dystrophy in the photoreceptors (cones and rods). It is characterized by the appearance of night blindness in infancy or adolescence, progressive contractions of the equatorial annular peripheral visual filed and results in a substantial loss in visual acuity or even blindness by adulthood. The N-acetyl-DL-leucine was used and induced an improvement of visual function: Seven patients were treated: three of them received 1 gr 2 times per day via oral administration; and four of them were subjected to a topical administration (2% eye drops), 3 times per day. All of them noticed an improvement of their visual acuity and visual field.

[3] = tested on: patients with Starpardt's Disease; assay: Clinical observation, Stargardt's disease twin patients; conditions: eye drops; one of two twin patients
Method: The invention will be even further illustrated by the description of the clinical examples which follow and which, of course, are not limiting in nature. In these examples, the active ingredient, the N-acetyl-DL-leucine, was administered continuously (i.e., at least once a day) in oral or topical form, in an amount of 2 gr per day in the case of the oral form and 2% in the case of eye drops. Two twin patients treated with N-acetyl-DL-leucine in the form of eye drops noticed an improvement of their visual acuity by 1/10 for one of them, and by 2/10 to 3/10 for the […].

[4] = tested on: patients with visual difficulties at night (hemeralopia); assay: Clinical observation, night vision (hemeralopia); conditions: all the patients with hemeralopia
Method: (§2) The invention will be even further illustrated by the description of the clinical examples which follow and which, of course, are not limiting in nature. In these examples, the active ingredient, the N-acetyl-DL-leucine, was administered continuously (i.e., at least once a day) in oral or topical form, in an amount of 2 gr per day in the case of the oral form and 2% in the case of eye drops.

astigmatic subjects = assay: Clinical observation, astigmatism; conditions: eye drops
Method: as §1

patients with myopia = assay: Clinical observation, myopia; conditions: seven patients; eye drops
Method: as §1

[5] = tested on: patients with a macular degeneration; assay: Clinical observation, age-related or myopia-related macular degeneration; conditions: eleven patients; eye drops or tablets
Method: The invention will be even further illustrated by the description of the clinical examples which follow and which, of course, are not limiting in nature. In these examples, the active ingredient, the N-acetyl-DL-leucine, was administered continuously (i.e., at least once a day) in oral or topical form, in an amount of 2 gr per day in the case of the oral form and 2% in the case of eye drops. Eleven patients with a macular degeneration which were treated with N-acetyl-DL-leucine (eye drops or tablets) noticed an improvement of their visual acuity.

[6] = tested on: patients with hypermetropia; assay: Clinical observation, hypermetropia; conditions: eye drops
Method: as §1

[7] = tested on: patients with known glaucoma; assay: Clinical observation, glaucomatous neuropathy or glaucoma
Method: as §2, with “drops. Patients with known glaucoma experienced a decrease in their occular tension, and an improvement of their visual acuity and visual field in a very short time as soon as the treatment was administrated. […] IV) Ametropia.” for “drops.”

**Q.** How did the “visual function (visual acuity, contrast vision and visual field)” value [1] turn out when CC(=O)NC(CC(C)C)C(=O)O (racemic) [N-acetyl-DL-leucine] was run?
**A.** improved

**Q.** What about the near vision (patients with presbyopia) of the same molecule?
**A.** improvement

**Q.** And the presbyopia (patients with presbyopia)?
**A.** decrease

**Q.** And the visual acuity [2]?
**A.** improvement

**Q.** What about the visual field [2] of the same molecule?
**A.** improvement

**Q.** What about the “improvement of visual acuity” value [3] of the same molecule?
**A.** 1/10

**Q.** And the night vision [4]?
**A.** greatly improved

**Q.** And the visual acuity (astigmatic subjects)?
**A.** improvement

**Q.** What about the refractive value (patients with myopia) of the same molecule?
**A.** reduced

**Q.** And the visual acuity (patients with myopia)?
**A.** improvement

**Q.** And the visual field (patients with myopia)?
**A.** improvement

**Q.** What about the visual acuity [5] of the same molecule?
**A.** improvement

**Q.** What about the “observations in hypermetropia (near vision, ametropia)” value [6] of the same molecule?
**A.** the same observations as for presbyopia

**Q.** What about the occular tension ([7]; in a very short time as soon as the treatment was administrated) of the same molecule?
**A.** decrease

**Q.** What about the visual field ([7]; oral route or eye drops) of the same molecule?
**A.** regression of the deficiency

**Q.** What about the visual acuity ([7]; oral route or topical route (eye drops)) of the same molecule?
**A.** marked improvement
